Test results published in patent US9932314B2, “Pyrazole compounds and their use as T-type calcium channel blockers” (IDORSIA PHARMACEUTICALS LTD, priority 2015, dated 2018).

Biological target: T1, voltage-dependent T-type calcium channel subunit alpha-1G (Cav3.2) (Homo sapiens, UniProt O95180)
T1 construct: expressed in transfected cells; host or cells: HEK293
Test: FLIPR calcium flux assay, HEK293 cells recombinantly expressing Cav3.2
Format: cell-based
Conditions: Cav3.2-channel, Fluo-4-AM, 3 min incubation, stimulation with 10 mM CaCl2
Procedure, shortened: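 HEK293 cells stably expressing human Cav3.2 were loaded with Fluo-4-AM. Compounds diluted in TEAC buffer (pH 7.2) were preincubated for 3 min, then Ca2+ entry was triggered by 10 mM final CaCl2. Inhibition curves were fitted sigmoidally to the area under the fluorescence trace.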

T1 sequence (O95180 whole entry): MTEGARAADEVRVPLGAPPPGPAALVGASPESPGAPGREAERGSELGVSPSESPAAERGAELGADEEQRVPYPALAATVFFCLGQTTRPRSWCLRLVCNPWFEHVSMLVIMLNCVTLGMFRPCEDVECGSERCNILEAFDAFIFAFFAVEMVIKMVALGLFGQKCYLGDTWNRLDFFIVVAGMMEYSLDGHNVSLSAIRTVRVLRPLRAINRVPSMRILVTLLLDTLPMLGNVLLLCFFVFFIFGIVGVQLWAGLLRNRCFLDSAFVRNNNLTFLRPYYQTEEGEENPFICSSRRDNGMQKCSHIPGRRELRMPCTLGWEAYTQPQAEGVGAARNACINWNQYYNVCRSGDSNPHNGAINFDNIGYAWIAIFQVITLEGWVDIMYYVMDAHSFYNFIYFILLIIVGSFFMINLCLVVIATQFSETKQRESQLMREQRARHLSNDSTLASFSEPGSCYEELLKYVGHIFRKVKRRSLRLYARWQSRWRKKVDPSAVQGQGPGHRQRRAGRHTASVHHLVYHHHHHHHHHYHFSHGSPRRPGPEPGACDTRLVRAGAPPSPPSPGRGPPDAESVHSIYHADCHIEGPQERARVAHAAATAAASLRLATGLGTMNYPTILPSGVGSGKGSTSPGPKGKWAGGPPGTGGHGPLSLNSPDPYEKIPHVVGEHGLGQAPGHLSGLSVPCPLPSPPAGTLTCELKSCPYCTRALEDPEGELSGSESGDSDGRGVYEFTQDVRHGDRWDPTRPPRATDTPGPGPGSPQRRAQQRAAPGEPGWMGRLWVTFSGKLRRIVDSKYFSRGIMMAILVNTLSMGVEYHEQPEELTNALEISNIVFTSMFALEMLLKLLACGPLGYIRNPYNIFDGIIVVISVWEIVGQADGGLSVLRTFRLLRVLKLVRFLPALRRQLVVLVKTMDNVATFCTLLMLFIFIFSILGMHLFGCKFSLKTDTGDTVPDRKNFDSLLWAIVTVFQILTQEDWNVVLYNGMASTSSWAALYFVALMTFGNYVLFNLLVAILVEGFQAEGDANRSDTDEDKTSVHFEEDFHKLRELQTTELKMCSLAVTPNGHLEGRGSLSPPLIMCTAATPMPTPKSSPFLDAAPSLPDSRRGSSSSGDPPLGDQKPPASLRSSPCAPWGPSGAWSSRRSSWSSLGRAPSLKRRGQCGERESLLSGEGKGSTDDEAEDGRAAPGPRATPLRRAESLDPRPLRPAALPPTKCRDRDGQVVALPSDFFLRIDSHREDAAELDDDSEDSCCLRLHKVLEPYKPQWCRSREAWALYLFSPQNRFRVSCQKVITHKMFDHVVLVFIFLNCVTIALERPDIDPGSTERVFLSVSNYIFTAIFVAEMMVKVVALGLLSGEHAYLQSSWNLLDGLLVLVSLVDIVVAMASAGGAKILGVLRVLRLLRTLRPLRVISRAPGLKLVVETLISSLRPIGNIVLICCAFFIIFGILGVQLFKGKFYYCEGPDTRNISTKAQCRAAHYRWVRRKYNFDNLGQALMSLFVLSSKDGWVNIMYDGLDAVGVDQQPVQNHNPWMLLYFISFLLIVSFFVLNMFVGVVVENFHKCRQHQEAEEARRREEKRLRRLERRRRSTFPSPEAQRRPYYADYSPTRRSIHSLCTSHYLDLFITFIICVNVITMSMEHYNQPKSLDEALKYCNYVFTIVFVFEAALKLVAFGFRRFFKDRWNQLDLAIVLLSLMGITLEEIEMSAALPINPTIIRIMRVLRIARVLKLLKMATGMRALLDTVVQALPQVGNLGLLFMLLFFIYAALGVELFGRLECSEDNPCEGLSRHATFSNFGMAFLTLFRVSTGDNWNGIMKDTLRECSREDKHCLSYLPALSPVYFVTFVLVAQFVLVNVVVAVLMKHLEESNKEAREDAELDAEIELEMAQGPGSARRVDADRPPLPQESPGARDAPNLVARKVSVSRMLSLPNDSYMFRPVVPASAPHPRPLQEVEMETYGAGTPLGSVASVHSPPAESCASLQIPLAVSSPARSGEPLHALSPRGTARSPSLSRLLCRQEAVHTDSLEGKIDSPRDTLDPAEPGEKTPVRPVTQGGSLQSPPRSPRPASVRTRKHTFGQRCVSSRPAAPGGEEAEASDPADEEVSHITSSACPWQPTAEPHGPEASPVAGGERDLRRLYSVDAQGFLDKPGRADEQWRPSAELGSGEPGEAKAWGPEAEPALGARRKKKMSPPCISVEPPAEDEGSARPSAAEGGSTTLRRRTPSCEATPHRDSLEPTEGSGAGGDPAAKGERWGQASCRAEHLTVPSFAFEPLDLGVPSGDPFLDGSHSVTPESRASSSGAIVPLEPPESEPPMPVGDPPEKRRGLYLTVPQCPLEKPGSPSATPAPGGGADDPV

IC50 | Compound
60 nM | Cc1cc(CC(=O)Nc2ccn(Cc3cc(C#N)c(F)cn3)n2)ccc1OCC(F)(F)F [Example 399, N-[1-(4-Cyano-5-fluoro-pyridin-2-ylmethyl)-1H-pyrazol-3-yl]-2-[3-methyl-4-(2,2,2-trifluoro-ethoxy)-phenyl]-acetamide]
8.5 nM | N#Cc1nc(Cn2ccc(NC(=O)Cc3ccc(OCC(F)(F)F)c(C4CC4)c3)n2)ccc1F [Example 408, N-[1-(6-Cyano-5-fluoro-pyridin-2-ylmethyl)-1H-pyrazol-3-yl]-2-[3-cyclopropyl-4-(2,2,2-trifluoro-ethoxy)-phenyl]-acetamide]
43 nM | N#Cc1cc(Cn2ccc(NC(=O)Cc3ccc(OCC(F)(F)F)c(C4CC4)c3)n2)ncc1F [Example 409, N-[1-(4-Cyano-5-fluoro-pyridin-2-ylmethyl)-1H-pyrazol-3-yl]-2-[3-cyclopropyl-4-(2,2,2-trifluoro-ethoxy)-phenyl]-acetamide]
17 nM | Cc1cc(CC(=O)Nc2ccn(Cc3ccc(F)c(C#N)n3)n2)ccc1OC(F)(F)F [Example 410, N-[1-(6-Cyano-5-fluoro-pyridin-2-ylmethyl)-1H-pyrazol-3-yl]-2-(3-methyl-4-trifluoromethoxy-phenyl)-acetamide]
5.3 nM | CCc1cc(CC(=O)Nc2ccn(Cc3ccc(F)c(C#N)n3)n2)ccc1OCC(F)(F)F [Example 412, N-[1-(6-Cyano-5-fluoro-pyridin-2-ylmethyl)-1H-pyrazol-3-yl]-2-[3-ethyl-4-(2,2,2-trifluoro-ethoxy)-phenyl]-acetamide]
30 nM | CCc1cc(CC(=O)Nc2ccn(Cc3cc(C#N)c(F)cn3)n2)ccc1OCC(F)(F)F [Example 413, N-[1-(4-Cyano-5-fluoro-pyridin-2-ylmethyl)-1H-pyrazol-3-yl]-2-[3-ethyl-4-(2,2,2-trifluoro-ethoxy)-phenyl]-acetamide]
6.4 nM | Cc1cc(CC(=O)Nc2ccn(Cc3ccc(C#N)cn3)n2)cc(C)c1OCC(F)(F)F [Example 414, N-[1-(5-Cyano-pyridin-2-ylmethyl)-1H-pyrazol-3-yl]-2-[3,5-dimethyl-4-(2,2,2-trifluoro-ethoxy)-phenyl]-acetamide]
4.9 nM | Cc1cc(CC(=O)Nc2ccn(Cc3ccc(F)c(C#N)n3)n2)cc(C)c1OCC(F)(F)F [Example 415, N-[1-(6-Cyano-5-fluoro-pyridin-2-ylmethyl)-1H-pyrazol-3-yl]-2-[3,5-dimethyl-4-(2,2,2-trifluoro-ethoxy)-phenyl]-acetamide]
37 nM | Cc1cc(CC(=O)Nc2ccn(Cc3ccc(C#N)cn3)n2)cnc1OCC(F)(F)F [Example 417, N-[1-(5-Cyano-pyridin-2-ylmethyl)-1H-pyrazol-3-yl]-2-[5-methyl-6-(2,2,2-trifluoro-ethoxy)-pyridin-3-yl]-acetamide]
94 nM | Cc1cc(CC(=O)Nc2ccn(Cc3ccc(F)c(C#N)n3)n2)cnc1OCC(F)(F)F [Example 418, N-[1-(6-Cyano-5-fluoro-pyridin-2-ylmethyl)-1H-pyrazol-3-yl]-2-[5-methyl-6-(2,2,2-trifluoro-ethoxy)-pyridin-3-yl]-acetamide]
8.7 nM | Cc1cc(CC(=O)Nc2ccn(Cc3ccc(F)c(C#N)n3)n2)ccc1OCCC(F)(F)F [Example 420, N-[1-(6-Cyano-5-fluoro-pyridin-2-ylmethyl)-1H-pyrazol-3-yl]-2-[3-methyl-4-(3,3,3-trifluoro-propoxy)-phenyl]-acetamide]
41 nM | Cc1cc(CC(=O)Nc2ccn(Cc3cc(C#N)c(F)cn3)n2)ccc1OCCC(F)(F)F [Example 421, N-[1-(4-Cyano-5-fluoro-pyridin-2-ylmethyl)-1H-pyrazol-3-yl]-2-[3-methyl-4-(3,3,3-trifluoro-propoxy)-phenyl]-acetamide]

More lines, now with the values behind:

Compound | IC50
CC(C)(C)c1ccc(CC(=O)Nc2ccn(Cc3cc(C#N)c(F)cn3)n2)cc1 [Example 400, 2-(4-tert-Butyl-phenyl)-N-[1-(4-cyano-5-fluoro-pyridin-2-ylmethyl)-1H-pyrazol-3-yl]-acetamide] | 49 nM
CC(C)c1ccc(CC(=O)Nc2ccn(Cc3cc(C#N)c(F)cn3)n2)cc1 [Example 401, N-[1-(4-Cyano-5-fluoro-pyridin-2-ylmethyl)-1H-pyrazol-3-yl]-2-(4-isopropyl-phenyl)-acetamide] | 126 nM
N#Cc1cc(Cn2ccc(NC(=O)Cc3ccc(C4(C(F)(F)F)CC4)cc3)n2)ncc1F [Example 402, N-[1-(4-Cyano-5-fluoro-pyridin-2-ylmethyl)-1H-pyrazol-3-yl]-2-[4-(1-trifluoromethyl-cyclopropyl)-phenyl]-acetamide] | 106 nM
N#Cc1ccc(Cn2ccc(NC(=O)Cc3ccc(C4(C#N)CC4)c(C(F)(F)F)c3)n2)nc1 [Example 403, 2-[4-(1-Cyano-cyclopropyl)-3-trifluoromethyl-phenyl]-N-[1-(5-cyano-pyridin-2-ylmethyl)-1H-pyrazol-3-yl]-acetamide] | 97 nM
N#CC1(c2ccc(CC(=O)Nc3ccn(Cc4ccc(F)c(F)c4)n3)cc2C(F)(F)F)CC1 [Example 404, 2-[4-(1-Cyano-cyclopropyl)-3-trifluoromethyl-phenyl]-N-[1-(3,4-difluoro-benzyl)-1H-pyrazol-3-yl]-acetamide] | 14 nM
N#Cc1ccc(Cn2ccc(NC(=O)Cc3ccc(OCC(F)(F)F)c(C4CC4)c3)n2)nc1 [Example 406, N-[1-(5-Cyano-pyridin-2-ylmethyl)-1H-pyrazol-3-yl]-2-[3-cyclopropyl-4-(2,2,2-trifluoro-ethoxy)-phenyl]-acetamide] | 15 nM
Cc1cc(CC(=O)Nc2ccn(Cc3cc(C#N)c(F)cn3)n2)cc(C)c1OCC(F)(F)F [Example 416, N-[1-(4-Cyano-5-fluoro-pyridin-2-ylmethyl)-1H-pyrazol-3-yl]-2-[3,5-dimethyl-4-(2,2,2-trifluoro-ethoxy)-phenyl]-acetamide] | 17 nM
Cc1cc(CC(=O)Nc2ccn(Cc3cc(C#N)c(F)cn3)n2)cnc1OCC(F)(F)F [Example 419, N-[1-(4-Cyano-5-fluoro-pyridin-2-ylmethyl)-1H-pyrazol-3-yl]-2-[5-methyl-6-(2,2,2-trifluoro-ethoxy)-pyridin-3-yl]-acetamide] | 9430 nM
N-[1-(5-Cyano-pyridin-2-ylmethyl)-1H-pyrazol-3-yl]-2-[4-(1-methyl-cyclopropyl)-phenyl]-acetamide [Example 375] | 9.9 nM
